Results from PubChem BioAssay (NCI).
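Here, GI50 denotes the concentration required for 50% inhibition of growth. TGI marks complete inhibition of growth.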

How the values were obtained:
Test in all cases: NCI-60 cell line screen, 384-well format
[1] = system: NCI-H226 lung
[2] = system: SK-OV-3 ovarian
[3] = system: 786-0 renal
[4] = system: NCI-H460 NSCLC
[5] = system: NCI-H522 lung
[6] = system: SN12C renal
[7] = system: HOP-92 NSCLC
[8] = system: SK-MEL-28 melanoma
[9] = system: RXF 393 renal
[10] = system: HL-60(TB) leukemia
[11] = system: UACC-257 melanoma
[12] = system: T-47D breast
[13] = system: ACHN renal
[14] = system: SNB-19 CNS
[15] = system: SF-295 CNS
[16] = system: OVCAR-8 ovarian
[17] = system: M14 melanoma
[18] = system: NCI-H322M lung
[19] = system: OVCAR-5 ovarian
[20] = system: DU-145 prostate
[21] = system: COLO 205 colon
[22] = system: CAKI-1 renal
[23] = system: A498 renal
[24] = system: K-562 leukemia
[25] = system: TK-10 renal
[26] = system: HCT-116 colon
[27] = system: MALME-3M melanoma
[28] = system: SF-268 CNS
[29] = system: MDA-MB-435 melanoma
[30] = system: BT-549 breast
[31] = system: MCF7 breast
[32] = system: SW-620 colon
[33] = system: NCI-H23 lung
[34] = system: U251 glioblastoma
[35] = system: PC-3 prostate
[36] = system: HS 578T breast
[37] = system: IGROV1 ovarian
[38] = system: HCT-15 colon
[39] = system: MDA-MB-231 breast
[40] = system: MOLT-4 leukemia
[41] = system: KM12 colon
[42] = system: OVCAR-3 ovarian
[43] = system: MDA-MB-468 breast
[44] = system: EKVX NSCLC
[45] = system: UACC-62 melanoma
[46] = system: UO-31 renal
[47] = system: HT29 colon
[48] = system: SF-539 CNS
[49] = system: OVCAR-4 ovarian
[50] = system: SK-MEL-5 melanoma
[51] = system: SNB-75 CNS
[52] = system: HOP-62 NSCLC
[53] = system: A549 NSCLC
[54] = system: SK-MEL-2 melanoma
[55] = system: SR leukemia

C=CC(=O)N1CCN([C@@H](CC2CC2)c2ccc([C@H](C)Nc3ncc4c(n3)N(CC)C(=O)OC4)cc2)CC1
GI50 [1]: 15.9 µM | TGI [1]: 36.1 µM | GI50 [2]: 17.9 µM | TGI [2]: 37.9 µM | GI50 [3]: 12.9 µM | TGI [3]: 25.7 µM | GI50 [4]: 5.15 µM | TGI [4]: 17 µM | GI50 [5]: 1.36 µM | TGI [5]: 4.12 µM | GI50 [6]: 16.2 µM | TGI [6]: 29.8 µM | GI50 [7]: 8.05 µM | TGI [7]: 20.7 µM | GI50 [8]: 16.6 µM | TGI [8]: 30.2 µM | GI50 [9]: 2.52 µM | TGI [9]: 12.5 µM | GI50 [10]: 1.82 µM | TGI [10]: 3.32 µM | GI50 [11]: 13.8 µM | TGI [11]: 26.8 µM | GI50 [12]: 13.9 µM | TGI [12]: 28 µM | GI50 [13]: 13.9 µM | TGI [13]: 26.8 µM | GI50 [14]: 17.2 µM | TGI [14]: 31.1 µM | GI50 [15]: 35.3 µM | TGI [15]: > 100 µM | GI50 [16]: 12.7 µM | TGI [16]: 26.1 µM | GI50 [17]: 14.3 µM | TGI [17]: 27.3 µM | GI50 [18]: 14 µM | TGI [18]: 27.3 µM | GI50 [19]: 16.1 µM | TGI [19]: 30.4 µM | GI50 [20]: 12.7 µM | TGI [20]: 25.3 µM | GI50 [21]: 17.6 µM | TGI [21]: 31.5 µM | GI50 [22]: 11.4 µM | TGI [22]: 23.6 µM | GI50 [23]: 12 µM | TGI [23]: 24.4 µM | GI50 [24]: 3.7 µM | TGI [24]: 16 µM | GI50 [25]: 4.36 µM | TGI [25]: 16.6 µM | GI50 [26]: 6.57 µM | TGI [26]: 19.7 µM | GI50 [27]: 19 µM | TGI [27]: 33.1 µM | GI50 [28]: 14.4 µM | TGI [28]: 27.5 µM | GI50 [29]: 14.3 µM | TGI [29]: 27.4 µM | GI50 [30]: 5.83 µM | TGI [30]: 18.6 µM | GI50 [31]: 9.04 µM | TGI [31]: > 100 µM | GI50 [32]: 13.5 µM | TGI [32]: 26.4 µM | GI50 [33]: 15.1 µM | TGI [33]: 61 µM | GI50 [34]: 15.4 µM | TGI [34]: 33.4 µM | GI50 [35]: 10.8 µM | TGI [35]: 22.7 µM | GI50 [36]: 6.9 µM | TGI [36]: 19.6 µM | GI50 [37]: 10.3 µM | TGI [37]: 22.1 µM | GI50 [38]: 12 µM | TGI [38]: 28.9 µM | GI50 [39]: 13.9 µM | TGI [39]: 26.8 µM | GI50 [40]: 1.89 µM | TGI [40]: 3.43 µM | GI50 [41]: 15.1 µM | TGI [41]: 28.5 µM | GI50 [42]: 10.2 µM | TGI [42]: 21.8 µM | GI50 [43]: 2.82 µM | TGI [43]: 7.69 µM | GI50 [44]: 16.4 µM | TGI [44]: > 100 µM | GI50 [45]: 10.6 µM | TGI [45]: 22.4 µM | GI50 [46]: 13.9 µM | TGI [46]: 26.9 µM | GI50 [47]: 14.8 µM | TGI [47]: 28 µM | GI50 [48]: 11.4 µM | TGI [48]: 23.5 µM | GI50 [49]: 13.3 µM | TGI [49]: 26.1 µM | GI50 [50]: 13.3 µM | TGI [50]: 30.1 µM | GI50 [51]: 7.22 µM | TGI [51]: 20 µM | GI50 [52]: 10 µM | TGI [52]: 27.9 µM | GI50 [53]: 25.3 µM | TGI [53]: > 100 µM | GI50 [54]: 10.3 µM | TGI [54]: 22 µM | GI50 [55]: 2.94 µM | TGI [55]: 8.8 µM
